Measurements as given in patent US12325710B2, “Substituted 1,2,3,4,5,6-hexahydroazepino[4,5-b]indoles for treating brain disorders” (priority 2019, dated 2025).
Entries after “also recorded” stand apart in the source; their conditions may differ.

Tested on: C57/BL6J mice
Experiment: Forced swim test (FST)
Type: in vivo, mouse
Conditions: 24 h after drug administration; TBG 50 mg/kg, ketamine 3 mg/kg i.p.
Protocol: Forced Swim Test (FST). Male C57/BL6J mice (9-10 weeks old at time of experiment, n=10 per condition) were obtained from the Jackson Lab and housed 4-5 mice/cage in a UCD vivarium following an IACUC approved protocol. After 1 week in the vivarium each mouse was handled for approximately 1 minute by a experimenter for 3 consecutive days leading up to the first FST. All experiments were carried out by the same experimenter who performed handling. During the FST, mice underwent a 6 min swim session in a clear Plexiglas cylinder 40 cm tall, 20 cm in diameter, and filled with 30 cm of 24±1° C. water. Fresh water was used for every mouse. After handling and habituation to the experimenter, drug-naïve mice first underwent a pretest swim to more reliably induce a depressive phenotype in the subsequent FST sessions. Immobility scores for all mice were determined after the pre-test and mice were randomly assigned to treatment groups to generate groups with similar average immobility scores to be used for the following two FST sessions. […] Experiments were video-recorded and manually scored offline. Immobility time—defined as passive floating or remaining motionless with no activity other than that needed to keep the mouse's head above water—was scored for the last 4 min of the 6 min trial.

For `COc1ccc2c3c([nH]c2c1)CCN(C)CC3` [TBG], the “immobility in FST” value was “antidepressant-like effects; also recorded: significantly reduced immobility”.
